Earlier results in patent US9229014B2, “Methods of assessing the need for and the effectiveness of therapy with antioxidants” (priority 2004, dated 2016).

Columns and labels:
heart and liver tissues = conditions: ADR-induced rats; for serum and tissue levels of LDH, aminotransferases and ALP: comparison with control group
[1] = lipid-soluble antioxidant

COc1cccc2c1C(=O)c1c(O)c3c(c(O)c1C2=O)C[C@@](O)(C(=O)CO)C[C@@H]3O[C@H]1C[C@H](N)[C@H](O)[C@H](C)O1 [ADR, adriamycin]
serum and tissue levels of LDH, aminotransferases and ALP (heart and liver tissues): significantly elevated

CC1=C(/C=C/C(C)=C/C=C/C(C)=C/C=C/C=C(C)/C=C/C=C(C)/C=C/C2=C(C)C[C@@H](O)CC2(C)C)C(C)(C)CCC1 [Beta-Cryptoxanthin]
antioxidant activity relative to vitamin E [1]: 3.1 times higher than vitamin E

N.N.O=C([O-])C1(C(=O)[O-])CCC1.[Pt+2] [Carboplatin]
reduced to oxidized glutathione ratio, antioxidant enzyme activities (inferior colliculus; 4 days after treatment): significantly depressed
nitric oxide and lipid peroxidation, xanthine oxidase, and manganese superoxide dismutase activities (inferior colliculus; not in the cerebellum): significantly increased

CC1=C[C@H](O)CC(C)(C)[C@H]1/C=C/C(C)=C/C=C/C(C)=C/C=C/C=C(C)/C=C/C=C(C)/C=C/C1=C(C)C[C@@H](O)CC1(C)C [Lutein]
antioxidant activity relative to vitamin E [1]: 2.3 times higher than vitamin E

CC(C)=CCC/C(C)=C/C=C/C(C)=C/C=C/C(C)=C/C=C/C=C(C)/C=C/C=C(C)/C=C/C=C(\C)CCC=C(C)C [Lycopene]
antioxidant activity relative to vitamin E [1]: 2.8 times higher than vitamin E

CC1=C(/C=C/C(C)=C/C=C/C(C)=C/C=C/C=C(C)/C=C/C=C(C)/C=C/C2=C(C)C[C@@H](O)CC2(C)C)C(C)(C)C[C@H](O)C1 [Zeaxanthin]
antioxidant activity relative to vitamin E [1]: 2.8 times higher than vitamin E

low molecular weight heparin [LMWH]
cardiac and hepatic lipid peroxidation induced by ADR (heart and liver tissues): decreased
rise in serum CPK (cardiotoxicity) (heart and liver tissues; LMWH treatment): attenuated
serum and tissue levels of LDH, aminotransferases and ALP (heart and liver tissues): prevented the rise
